Experimental data: the OPERA property sets (Mansouri et al. 2018)

Conditions: not given

SMILES	boiling point [°C]	melting point [°C]	ready biodegradability	log10 Henry constant (atm·m³/mol)	log10 Koa	log10 vapour pressure (mmHg)	log10 Koc (L/kg)
CCOC(=O)C(Cl)CCl (stereo not given)	184	–	–	–	–	–	–
O=C1c2cc3ccccc3cc2-c2ccc3ccccc3c21	–	214	–	–	–	–	–
CCCCCCCCc1ccc(N)cc1	310	20	readily biodegradable	–	–	–	–
CCC(Br)C(Br)Br (stereo not given)	216	–	–	–	–	–	–
CN(C)C=O	153	-60.4	readily biodegradable	-7.13	4.38	0.588	–
Cc1cc2ccccc2n1C	–	56.5	–	–	–	–	–
CC1(O)CCCCC1	155	25	–	–	–	0.0531	–
c1ccc(-c2oc(-c3ccccc3)c(-c3ccccc3)c2-c2ccccc2)cc1	–	175	–	–	–	–	–
O=C(O)c1cccc(-c2ccccc2)c1O	–	186	–	–	–	–	–
CCC(C(=O)NC(N)=O)c1ccccc1 (stereo not given)	–	162	–	–	–	–	–
Clc1cc2c(cc1Cl)Oc1c(Cl)c(Cl)c(Cl)c(Cl)c1O2	–	273	–	–	–	-10.4	–
CCOC(=O)CN1CCN(C(=O)/C=C\c2cc(OC)c(OC)c(OC)c2)CC1	–	96	–	–	–	–	–
O=c1cccc[nH]1	280	108	readily biodegradable	–	–	–	–
Cc1ccc(N(C)C)cc1	211	–	–	–	–	-0.75	–
c1ccc(N=NNc2ccccc2)cc1	–	98	–	–	–	-4.72	–
CNC(=O)Oc1cc(C)c(N(C)C)c(C)c1	–	85	–	–	–	–	2.48
C=C1C[C@@H]1C[C@H](N)C(=O)O	–	282	–	–	–	–	–
O=C=Nc1ccc(Cl)c(Cl)c1	–	43	–	–	–	–	–
O=C1CCCCCCCCC1	–	28	–	–	–	–	–
CC(=O)NCc1c(I)c(NC(C)=O)c(I)c(C(=O)O)c1I	–	255	–	–	–	–	–
CCC(C)(CO)CO	226	40.3	–	–	–	–	–
Cc1cccc(NC(=O)c2ccccc2)c1	–	125	–	–	–	–	–
Cc1ccc(C(=O)O)c([N+](=O)[O-])c1O	–	186	–	–	–	–	–
CC(C)=CC(C)C	83.4	-128	–	–	–	–	–

SMILES	boiling point [°C]	melting point [°C]	ready biodegradability	log10 Henry constant (atm·m³/mol)	log10 Koa	log10 vapour pressure (mmHg)	log10 Koc (L/kg)
C=CCN(CC=C)c1c(C)cc(OC(=O)NC)cc1C	–	67	–	–	–	–	–
O=C1c2ccccc2-c2cccc3cccc1c23	–	170	not readily biodegradable	–	–	–	–
CC(N)CO (stereo not given)	174	–	–	–	–	–	–
C1=CC=CCC=C1	117	-79.5	–	–	–	1.37	–
Cc1cccc(S)c1	195	-20	–	–	–	-0.257	–
C=C(C)C(C)C	55.6	-157	–	–	–	2.4	–
Oc1ccc(N=Nc2ccc(N=Nc3ccccc3)c3ccccc23)cc1	–	210	–	–	–	–	–
[O-][n+]1ccccc1S	–	70.5	–	–	–	–	–
C=COCC(C)C	83	-112	–	–	–	1.77	–
C=C(C)CCC	62.1	–	–	–	–	2.29	–
Cc1cccc(OP(=O)(Oc2cccc(C)c2)Oc2cccc(C)c2)c1	–	25.5	readily biodegradable	-4.08	–	–	–
CC(C)(C)CN	82	–	–	–	–	–	–
O=C(O)CCCCC[N+](=O)[O-]	–	–	readily biodegradable	–	–	–	–
O=C(O)C1CCCCCC1	259	–	–	–	–	–	–
C[C@@H]1C[C@H](N(C)C)[C@@H](O)[C@H](O[C@H]2[C@@H](C)C[C@@H](C)C(=O)C=C[C@@H](C)[C@@H]([C@@H](C)O)OC(=O)[C@@H]2C)O1	–	157	–	–	–	–	–
CC=CC=C(C)C	112	-74.2	–	–	–	–	–
Clc1ccc(Cn2cncn2)cc1Cl	–	46.5	–	–	–	–	–
CC(C)CCC(CO)C(C)C (stereo not given)	211	–	–	–	–	–	–
O=C1CC(c2ccccc2)Oc2ccccc21 (stereo not given)	–	77	–	–	–	–	–
CCCCCCCOCC	166	-68.3	–	–	–	–	–
COC(C)(C)CCCC(C)C/C=C/C(C)=C/C(=O)OC(C)C (stereo not given)	–	–	–	–	–	-4.63	–
C[C@H](N[C@@H](C)c1ccccc1)c1ccccc1	296	–	–	–	–	–	–
COc1cccc(C)c1C	199	29	–	–	–	–	–
CCCCNc1ccccc1	244	-14.4	–	–	–	–	–

SMILES	boiling point [°C]	melting point [°C]	ready biodegradability	log10 Henry constant (atm·m³/mol)	log10 Koa	log10 vapour pressure (mmHg)	log10 Koc (L/kg)
c1ccc2c(N=Nc3cccc4ccccc34)cccc2c1	–	190	–	–	–	–	–
CSc1ccccc1	193	–	–	–	–	-0.314	–
CC(C)(C)C(=O)OCOc1ccccc1C(N)=O	–	95	–	–	–	–	–
COC(=O)c1ccncc1	208	16.1	–	–	–	–	–
CCCCCC(O)c1ccc(O)c(O)c1 (stereo not given)	–	109	–	–	–	–	–
O=C(O)c1ccc([N+](=O)[O-])o1	–	186	–	–	–	–	–
CC(Cc1ccc(C(C)(C)C)cc1)CN1C[C@@H](C)O[C@@H](C)C1 (single isomer, unassigned)	–	–	–	–	–	-4.59	–
CCOC(=O)c1ccccc1O	232	1	readily biodegradable	–	–	-1.07	–
C=COCCCCCCCCCC	–	-41	–	–	–	–	–
CCOP(=S)(OCC)O/N=C(\C#N)c1ccccc1	–	6.1	not readily biodegradable	–	–	-4.8	–
O=C(O)C1CSCN1 (stereo not given)	–	196	–	–	–	–	–
N#Cc1ccc(Cl)cc1	223	95	–	–	–	–	–
Cc1c([N+](=O)[O-])cc(C(C)C)c(O)c1[N+](=O)[O-]	–	55.5	–	–	–	–	–
c1ccc2[nH]ccc2c1	254	52.5	readily biodegradable	–	–	-1.91	–
Cc1nc2ccccc2c(=O)n1-c1ccccc1Cl	–	127	–	–	–	–	–
Cc1c(Cl)ccc(O)c1Cl	236	58	–	–	–	–	–
C=Cc1ccc(CCl)cc1	–	–	not readily biodegradable	–	–	–	–
CCOC(C)(OCC)OCC	145	–	–	–	–	–	–
CCc1ccc(C)nc1	178	-70.9	–	–	–	0.155	–
NCCc1c[nH]c2ccccc12	–	118	–	–	–	–	–
Nc1c2ccccc2nc2ccccc12	–	241	–	–	–	–	–
COc1ccc(Cl)c(Cl)c1Cl	–	69.5	–	–	–	–	–
COC(=O)Nc1nc2cc(C(=O)c3ccccc3)ccc2[nH]1	–	288	–	–	–	–	–
N#Cc1nccnc1C#N	–	132	–	–	–	–	–

SMILES	boiling point [°C]	melting point [°C]	ready biodegradability	log10 Henry constant (atm·m³/mol)	log10 Koa	log10 vapour pressure (mmHg)	log10 Koc (L/kg)
CC#CC(=O)O	203	78	–	–	–	–	–
CCC(=O)Oc1ccccc1	211	20	–	–	–	–	–
Cc1cccc([N+](=O)[O-])c1C	240	15	not readily biodegradable	–	–	-0.445	–
CC1(C)CC[C@]2(C)CC[C@]3(C)C(=CC[C@@H]4[C@@]5(C)CC[C@H](O)C(C)(C)[C@@H]5CC[C@]43C)[C@@H]2C1	–	197	–	–	–	–	–
Cc1ccc2c(c1)CC(C)CC2 (stereo not given)	237	–	–	–	–	–	–
CC[N+]1(C)CCCC(OC(=O)C(O)(c2ccccc2)c2ccccc2)C1.[Br-] (stereo not given)	–	180	–	–	–	–	–
S=C([S-])[S-]	–	-30	–	–	–	–	–
CN(C)c1cccc([N+](=O)[O-])c1	282	60.5	–	–	–	–	–
CCOc1ccc2ccccc2c1	282	37.5	–	–	–	–	–
Clc1ccc(C(c2ccccc2Cl)C(Cl)Cl)cc1 (stereo not given)	–	77	–	–	–	-5.71	–
CN1CCC[C@H]1c1cccnc1	247	-79	–	–	–	-1.42	2.01
COS(=O)(=O)c1ccc([N+](=O)[O-])cc1	–	94	–	–	–	–	–
O=C(O)CC(O)C(=O)O (stereo not given)	–	131	readily biodegradable	–	–	-7.48	–
CC(C)C12CCC(C)(CC1)O2	174	1	–	–	–	0.286	–
FC1(F)C(F)(F)C(F)(F)C2(F)C(F)(C1(F)F)C(F)(F)C(F)(F)C1(F)C(F)(F)C(F)(F)C(F)(F)C(F)(F)C12F (stereo not given)	210	-20	–	–	–	–	–
Nc1c(Cl)cc([N+](=O)[O-])cc1Cl	–	191	not readily biodegradable	–	–	-5.92	3
O=C(C1CC1)C1CC1	161	–	–	–	–	–	–
C#CCN1CC(=O)N(COC(=O)[C@@H]2[C@@H](C=C(C)C)C2(C)C)C1=O	–	–	–	–	–	-7.87	–
CCC1(CC)C(=O)C=CNC1=O	–	90.7	–	–	–	–	–
O=c1cn[nH]c(=O)[nH]1	–	274	–	–	–	–	–
O=C1CCO1	162	-33.4	readily biodegradable	–	–	–	–
N[C@@H](CSSC[C@H](N)C(=O)O)C(=O)O	–	–	readily biodegradable	–	–	–	–
CC[C@]1(O)C[C@H]2C[N@](CCc3c([nH]c4ccccc34)[C@@](C(=O)OC)(c3cc4c(cc3OC)N(C)[C@H]3[C@@](O)(C(N)=O)[C@H](O)[C@]5(CC)C=CCN6CC[C@]43[C@@H]65)C2)C1	–	231	–	–	–	–	–
CNCC(OC)OC	140	–	–	–	–	–	–

Same assay, conditions: fish

SMILES	log10 BCF	log10 biotransformation half-life (days)
CN(C)C=O	-0.1	–
Clc1cc2c(cc1Cl)Oc1c(Cl)c(Cl)c(Cl)c(Cl)c1O2	4	1.27
CNC(=O)Oc1cc(C)c(N(C)C)c(C)c1	1.42	–
O=C1c2ccccc2-c2cccc3cccc1c23	2.09	-0.69
CCOP(=S)(OCC)O/N=C(\C#N)c1ccccc1	2.91	–
COc1ccc(Cl)c(Cl)c1Cl	2.96	1.4
Clc1ccc(C(c2ccccc2Cl)C(Cl)Cl)cc1 (stereo not given)	–	1.65
Clc1cccc(-c2c(Cl)ccc(Cl)c2Cl)c1	–	2.47
